Measured values from patent US20250154169A1, “COMPOUNDS AND METHODS FOR MODULATING SPLICING” (REMIX THERAPEUTICS INC., priority 2021, published 2025).

Legend:
[1] = test system: MYB mRNA; assay: Splicing RT-qPCR assay, MYB canonical (CJ) and alternative (AJ) junction mRNA; format: cell-based, human; conditions: Homo sapiens, 24 h, A673 or K562 cells, 24 hours compound treatment, RT-qPCR; for AC50: read-out: MYB AJ (AC50, increase in alternative junction mRNA); for IC50: read-out: MYB CJ (IC50, decrease in canonical junction mRNA)
Procedure, shortened: (§1)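 A673 or K562 cells were treated 24 h at 37 °C with an 11-point 3-fold compound dilution series (top 10 uM, DMSO ≤0.25%). Lysates went to one-step RT-qPCR measuring canonical (CJ) and alternative-exon (AJ) junction transcripts, normalized to GAPDH, GUSB or PPIA.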

[2] = test system: HTT mRNA; assay: Splicing RT-qPCR assay, HTT canonical (CJ) and alternative (AJ) junction mRNA; format: cell-based, human; conditions: Homo sapiens, A673 or K562 cells, 24 hours compound treatment; for IC50: 24 h, read-out: HTT CJ (IC50, decrease in canonical junction mRNA); for AC50: read-out: HTT AJ (AC50, increase in alternative junction mRNA)
Procedure, shortened: as §1

Compound | AC50 [1] | IC50 [1] | IC50 [2] | AC50 [2]
CCn1cc2c(C3CCNC3)ccc(C(=O)Nc3cc(F)c4nccn4c3)c2n1 (stereo not drawn) [Compound 526, 2-ethyl-N-{8-fluoroimidazo[1,2-a]pyridin-6-yl}-4-(pyrrolidin-3-yl) indazole-7-carboxamide] | 1000 to 10000 nM | 1000 to 10000 nM | > 10000 nM | > 10000 nM
CCN(c1ccc(C(=O)Nc2cc(F)c3nc(C)cn3c2)c2nn(C)cc12)C1CCNCC1 [Compound 527, 4-[ethyl(piperidin-4-yl)amino]-N-{8-fluoro-2-methylimidazo[1,2-a]pyridin-6-yl}-2-methylindazole-7-carboxamide] | 100 to 1000 nM | 100 to 1000 nM | > 10000 nM | > 10000 nM
Cc1cn2cc(NC(=O)c3cc(Cl)c(N4CCNCC4)c4cn(C)nc34)cc(F)c2n1 [Compound 528, 5-chloro-N-{8-fluoro-2-methylimidazo[1,2-a]pyridin-6-yl}-2-methyl-4-(piperazin-1-yl) indazole-7-carboxamide] | 100 to 1000 nM | 100 to 1000 nM | > 10000 nM | > 10000 nM
COc1nc(NC(=O)c2ccc(N3CCNCC3)c3cn(C)nc23)cc2oc(C)nc12 [Compound 529, N-{4-methoxy-2-methyl-[1,3]oxazolo[4,5-c]pyridin-6-yl}-2-methyl-4-(piperazin-1-yl) indazole-7-carboxamide] | < 100 nM | < 100 nM | < 100 nM | 100 to 1000 nM
Cc1cn2cc(NC(=O)c3ccc(N4CC[C@@H](NC5COC5)C4)c4cn(C)nc34)cc(F)c2n1 [Compound 531, N-{8-fluoro-2-methylimidazo[1,2-a]pyridin-6-yl}-2-methyl-4-[(3R)-3-(oxetan-3-ylamino)pyrrolidin-1-yl]indazole-7-carboxamide] | 1000 to 10000 nM | 100 to 1000 nM | 1000 to 10000 nM | 1000 to 10000 nM
Cc1cn2cc(NC(=O)c3ccc(N4CC[C@@H](NC5CCC5)C4)c4cn(C)nc34)cc(F)c2n1 [Compound 533, (R)-4-(3-(cyclobutylamino)pyrrolidin-1-yl)-N-(8-fluoro-2-methylimidazo[1,2-a]pyridin-6-yl)-2-methyl-2H-indazole-7-carboxamide] | < 100 nM | < 100 nM | 1000 to 10000 nM | 1000 to 10000 nM
CCn1cc2c(N3CCN[C@@H](C(C)C)C3)ccc(C(=O)Nc3cc(F)c4nc(C)cn4c3)c2n1 [Compound 535, 2-ethyl-N-{8-fluoro-2-methylimidazo[1,2-a]pyridin-6-yl}-4-[(3 S)-3-isopropylpiperazin-1-yl]indazole-7-carboxamide] | 100 to 1000 nM | 100 to 1000 nM | > 10000 nM | > 10000 nM
CCn1cc2c(N3CCN4CCOC[C@H]4C3)ccc(C(=O)Nc3cc(F)c4nc(C)cn4c3)c2n1 [Compound 537, 4-[(9aR)-hexahydro-1H-pyrazino[2,1-c][1,4]oxazin-8-yl]-2-ethyl-N-{8-fluoro-2-methylimidazo[1,2-a]pyridin-6-yl}indazole-7-carboxamide] | 1000 to 10000 nM | 1000 to 10000 nM | > 10000 nM | > 10000 nM
CCn1cc2c(N3CCN4CCOC[C@@H]4C3)ccc(C(=O)Nc3cc(F)c4nc(C)cn4c3)c2n1 [Compound 538, 4-[(9aS)-hexahydro-1H-pyrazino[2,1-c][1,4]oxazin-8-yl]-2-ethyl-N-{8-fluoro-2-methylimidazo[1,2-a]pyridin-6-yl} indazole-7-carboxamide] | 1000 to 10000 nM | 1000 to 10000 nM | 1000 to 10000 nM | 1000 to 10000 nM
CCn1cc2c(N3CCC(C)(N)C3)ccc(C(=O)Nc3cc(F)c4nc(C)cn4c3)c2n1 (stereo not drawn) [Compound 539, 4-(3-amino-3-methylpyrrolidin-1-yl)-2-ethyl-N-{8-fluoro-2-methylimidazo[1,2-a]pyridin-6-yl}indazole-7-carboxamide] | 1000 to 10000 nM | 1000 to 10000 nM | > 10000 nM | > 10000 nM
CCn1cc2c(N3CCN[C@@H](C4CC4)C3)ccc(C(=O)Nc3cc(F)c4nc(C)cn4c3)c2n1 [Compound 541, 4-[(3S)-3-cyclopropylpiperazin-1-yl]-2-ethyl-N-{8-fluoro-2-methylimidazo[1,2-a]pyridin-6-yl}indazole-7-carboxamide] | 100 to 1000 nM | 100 to 1000 nM | > 10000 nM | > 10000 nM
CCn1cc2c(N3CCN[C@H](C4CC4)C3)ccc(C(=O)Nc3cc(F)c4nc(C)cn4c3)c2n1 [Compound 542, 4-[(3R)-3-cyclopropylpiperazin-1-yl]-2-ethyl-N-{8-fluoro-2-methylimidazo[1,2-a]pyridin-6-yl}indazole-7-carboxamide] | 100 to 1000 nM | 100 to 1000 nM | 1000 to 10000 nM | 1000 to 10000 nM
CCn1cc2c(N3CCC(NC4CCC4)CC3)ccc(C(=O)Nc3cc(F)c4nc(C)cn4c3)c2n1 [Compound 543, 4-[4-(cyclobutylamino)piperidin-1-yl]-2-ethyl-N-{8-fluoro-2-methylimidazo[1,2-a]pyridin-6-yl}indazole-7-carboxamide] | < 100 nM | < 100 nM | 1000 to 10000 nM | 1000 to 10000 nM
CCn1cc2c(N3CCC(C)(NC)C3)ccc(C(=O)Nc3cc(F)c4nc(C)cn4c3)c2n1 (stereo not drawn) [Compound 544, 2-ethyl-N-{8-fluoro-2-methylimidazo[1,2-a]pyridin-6-yl}-4-[3-methyl-3-(methylamino)pyrrolidin-1-yl]indazole-7-carboxamide] | 1000 to 10000 nM | 1000 to 10000 nM | > 10000 nM | > 10000 nM
CCn1cc2c(N(C)C3CCNCC3)ccc(C(=O)Nc3cc(F)c4nc(C)cn4c3)c2n1 [Compound 545, 2-ethyl-N-(8-fluoro-2-methylimidazo[1,2-a]pyridin-6-yl)-4-(methyl(piperidin-4-yl)amino)-2H-indazole-7-carboxamide] | 100 to 1000 nM | 100 to 1000 nM | 1000 to 10000 nM | > 10000 nM
CCn1cc2c(N3CC[C@@](C)(NC)C3)ccc(C(=O)Nc3cc(F)c4nc(C)cn4c3)c2n1 [Compound 547, 2-ethyl-N-{8-fluoro-2-methylimidazo[1,2-a]pyridin-6-yl}-4-[(3R)-3-methyl-3-(methylamino)pyrrolidin-1-yl]indazole-7-carboxamide] | > 10000 nM | > 10000 nM | > 10000 nM | > 10000 nM
CCn1cc2c(N3CC[C@](C)(NC)C3)ccc(C(=O)Nc3cc(F)c4nc(C)cn4c3)c2n1 [Compound 548, 2-ethyl-N-{8-fluoro-2-methylimidazo [1,2-a]pyridin-6-yl}-4-[(3S)-3-methyl-3-(methylamino)pyrrolidin-1-yl]indazole-7-carboxamide] | > 10000 nM | > 10000 nM | > 10000 nM | > 10000 nM
CCn1cc2c(N(C)C3C[C@H]4CC[C@@H](C3)N4)ccc(C(=O)Nc3cc(F)c4nc(C)cn4c3)c2n1 (stereo partly drawn) [Compound 550, 4-[(1R,5S)-8-azabicyclo[3.2.1]octan-3-yl(methyl)amino]-2-ethyl-N-{8-fluoro-2-methylimidazo[1,2-a]pyridin-6-yl}indazole-7-carboxamide] | 1000 to 10000 nM | 1000 to 10000 nM | > 10000 nM | > 10000 nM
Cc1cn2cc(NC(=O)c3ccc(N4CC[C@@H](N5CCOCC5)C4)c4cn(C)nc34)cc(F)c2n1 [Compound 552, N-{8-fluoro-2-methylimidazo[1,2-a]pyridin-6-yl}-2-methyl-4-[(3R)-3-(morpholin-4-yl)pyrrolidin-1-yl]indazole-7-carboxamide] | 100 to 1000 nM | 100 to 1000 nM | 100 to 1000 nM | 100 to 1000 nM
C=CCN[C@@H]1CCN(c2ccc(C(=O)Nc3cc(F)c4nc(C)cn4c3)c3nn(C)cc23)C1 [Compound 554, N-{8-fluoro-2-methylimidazo[1,2-a]pyridin-6-yl}-2-methyl-4-[(3R)-3-(prop-2-en-1-ylamino)pyrrolidin-1-yl]indazole-7-carboxamide] | < 100 nM | 100 to 1000 nM | > 10000 nM | > 10000 nM
CCn1cc2c(N3CCC(NCC4(O)CC4)CC3)ccc(C(=O)Nc3cc(F)c4nc(C)cn4c3)c2n1 [Compound 576, 2-ethyl-N-{8-fluoro-2-methylimidazo[1,2-a]pyridin-6-yl}-4-(4-{[(1-hydroxycyclopropyl)methyl]amino}piperidin-1-yl) indazole-7-carboxamide] | 100 to 1000 nM | 100 to 1000 nM | 1000 to 10000 nM | > 10000 nM
CCn1cc2c(N3CCC(NCC(C)(C)O)CC3)ccc(C(=O)Nc3cc(F)c4nc(C)cn4c3)c2n1 [Compound 577, 2-ethyl-N-{8-fluoro-2-methylimidazo[1,2-a]pyridin-6-yl}-4-{4-[(2-hydroxy-2-methylpropyl)amino]piperidin-1-yl}indazole-7-carboxamide] | 100 to 1000 nM | 100 to 1000 nM | 100 to 1000 nM | 100 to 1000 nM
Cc1cn2cc(NC(=O)c3ccc(N4CC[C@@H](Nc5ccccc5)C4)c4cn(C)nc34)cc(F)c2n1 [Compound 579, N-{8-fluoro-2-methylimidazo[1,2-a]pyridin-6-yl}-2-methyl-4-[(3R)-3-(phenylamino)pyrrolidin-1-yl] indazole-7-carboxamide] | > 10000 nM | > 10000 nM | > 10000 nM | > 10000 nM
CCn1cc2c(N3CCC(NC4C5CNCC54)CC3)ccc(C(=O)Nc3cc(F)c4nc(C)cn4c3)c2n1 (stereo not drawn) [Compound 580, 4-(4-{3-azabicyclo[3.1.0]hexan-6-ylamino}piperidin-1-yl)-2-ethyl-N-{8-fluoro-2-methylimidazo[1,2-a]pyridin-6-yl}indazole-7-carboxamide; bis(trifluoroacetic acid)] | 1000 to 10000 nM | 100 to 1000 nM | > 10000 nM | > 10000 nM
